Experimental data reported in patent US12264134B2 (Merck Sharp & Dohme LLC, priority 2018, dated 2025).

Molecular target: IDO1 (Homo sapiens, UniProt P14902)
Experiment: IDO1 Cellular Assay in HeLa Cells Stimulated with IFNγ
Assay type: cell-based
Conditions: read-out: HeLa Cell Potency, IC50

IDO1, sequence (P14902 whole entry): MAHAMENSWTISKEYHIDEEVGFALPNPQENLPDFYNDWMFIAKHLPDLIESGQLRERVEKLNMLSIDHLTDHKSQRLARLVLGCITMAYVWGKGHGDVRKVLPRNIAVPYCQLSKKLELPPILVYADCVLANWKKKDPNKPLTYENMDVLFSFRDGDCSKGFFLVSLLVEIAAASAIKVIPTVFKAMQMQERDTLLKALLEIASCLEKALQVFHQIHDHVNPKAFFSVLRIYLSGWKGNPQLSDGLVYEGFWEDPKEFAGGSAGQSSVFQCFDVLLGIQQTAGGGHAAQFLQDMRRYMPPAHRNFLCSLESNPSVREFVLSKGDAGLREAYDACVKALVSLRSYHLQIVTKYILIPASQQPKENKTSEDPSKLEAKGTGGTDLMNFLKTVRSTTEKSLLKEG

| Structure (SMILES) | IC50 [nM] |
| --- | --- |
| Cc1c(Cl)cccc1N1CCN(C(=O)Cn2nc(C(=O)N3CCN(C(=O)CO)CC3)c3c2CCC(F)C3)CC1 (stereo not drawn) [Example 371, 1-(4-(3-chloro-2-methylphenyl)piperazin-1-yl)-2-(5-fluoro-3-(4-(2-hydroxyacetyl)piperazine-1-carbonyl)-4,5,6,7-tetrahydro-1H-indazol-1-yl)ethan-1-one] | 15.7 |
| Cc1c(Cl)cccc1N1CCN(C(=O)Cn2nc(C(=O)N3CCC(O)CC3)c3c2CCC(F)C3)CC1 (stereo not drawn) [Example 372, 1-(4-(3-chloro-2-methylphenyl)piperazin-1-yl)-2-(5-fluoro-3-(4-hydroxypiperidine-1-carbonyl)-4,5,6,7-tetrahydro-1H-indazol-1-yl)ethan-1-one] | 2.32 |
| Cc1c(Cl)cccc1N1CCN(C(=O)Cn2nc(C(=O)N3CC[C@H](O)[C@H](F)C3)c3c2CCC(F)C3)CC1 (stereo partly drawn) [Example 374, 1-(4-(3-chloro-2-methylphenyl)piperazin-1-yl)-2-(5-fluoro-3-((3R,4S)-3-fluoro-4-hydroxypiperidine-1-carbonyl)-4,5,6,7-tetrahydro-1H-indazol-1-yl)ethan-1-one] | 5.17 |
| Cc1c(Cl)cccc1N1CCN(C(=O)Cn2nc(C(=O)N3CC[C@@H](O)[C@@H](F)C3)c3c2CCC(F)C3)CC1 (stereo partly drawn) [Example 375, 1-(4-(3-chloro-2-methylphenyl)piperazin-1-yl)-2-(5-fluoro-3-((3S,4R)-3-fluoro-4-hydroxypiperidine-1-carbonyl)-4,5,6,7-tetrahydro-1H-indazol-1-yl)ethan-1-one] | 9.03 |
| Cc1c(Cl)cccc1N1CCN(C(=O)Cn2nc(C(=O)N3CCN(C(=O)CO)CC3)c3c2CCC(F)C3)CC1 (stereo not drawn) [Example 376, 1-(4-(3-chloro-2-methylphenyl)piperazin-1-yl)-2-(5-fluoro-3-(4-(2-hydroxyacetyl)piperazine-1-carbonyl)-4,5,6,7-tetrahydro-1H-indazol-1-yl)ethan-1-one] | 14 |
| CC(=O)NC1CCN(C(=O)c2nn(CC(=O)N3CCN(c4cccc(Cl)c4C)CC3)c3c2CC(F)CC3)CC1 (stereo not drawn) [Example 377, N-(1-(1-(2-(4-(3-chloro-2-methylphenyl)piperazin-1-yl)-2-oxoethyl)-5-fluoro-4,5,6,7-tetrahydro-1H-indazol-3-carbonyl)piperidin-4-yl)acetamide] | 3.15 |
| Cc1c(Cl)cccc1N1CCN(C(=O)Cn2nc(C(=O)N3CC[C@@H](O)[C@@H](F)C3)c3c2CCC(F)(F)C3)CC1 [Example 378, 1-(4-(3-chloro-2-methylphenyl)piperazin-1-yl)-2-(5,5-difluoro-3-((3 S,4R)-3-fluoro-4-hydroxypiperidine-1-carbonyl)-4,5,6,7-tetrahydro-1H-indazol-1-yl)ethan-1-one] | 9.25 |
| Cc1c(Cl)cccc1N1CCN(C(=O)Cn2nc(C(=O)N3CCN(C)C(C)C3)c3c2CCC(F)(F)C3)CC1 (stereo not drawn) [Example 382] | 11.6 |
| Cc1c(Cl)cccc1N1CCN(C(=O)Cn2nc(C(=O)N3CCC(O)(CF)CC3)c3c2CCC(F)(F)C3)CC1 [Example 383, 1-(4-(3-chloro-2-methylphenyl)piperazin-1-yl)-2-(5,5-difluoro-3-(4-(fluoromethyl)-4-hydroxypiperidine-1-carbonyl)-4,5,6,7-tetrahydro-1H-indazol-1-yl)ethan-1-one] | 4.49 |
| Cc1cccc(N2CCN(C(=O)Cn3nc(C(=O)N4CCC(O)CC4)c4c3C[C@H]3C[C@@H]43)C(C(F)F)C2)c1C (stereo partly drawn) [Example 385, 1-(2-(difluoromethyl)-4-(2,3-dimethylphenyl)piperazin-1-yl)-2-((3bR,4aR)-3-(4-hydroxypiperidine-1-carbonyl)-3b,4,4a,5-tetrahydro-1H-cyclopropa[3,4]cyclopenta[1,2-c]pyrazol-1-yl)ethanone] | 34.9 |
| Cc1cccc(N2CCN(C(=O)Cn3nc(C(=O)N4CCN(C(=O)CO)CC4)c4c3C[C@H]3C[C@@H]43)C(C(F)F)C2)c1C (stereo partly drawn) [Example 388] | 92.6 |
| Cc1cccc(N2CCN(C(=O)Cn3nc(C(=O)N4CCN(C(=O)CO)CC4)c4c3C[C@H]3C[C@@H]43)C(C(F)F)C2)c1C (stereo partly drawn) [Example 389] | 47.6 |
| Cc1cccc(N2CCN(C(=O)Cn3nc(C(=O)N4CCN(C(=O)CO)CC4)c4c3C[C@H]3C[C@@H]43)C(C(F)F)C2)c1C (stereo partly drawn) [Example 390] | 226 |
| Cc1cccc(N2CCN(C(=O)Cn3nc(C(=O)N4CCN(C(=O)[C@H](C)O)CC4)c4c3CCC4)CC2)c1C [Example 397, (S)-1-(4-(1-(2-(4-(2,3-dimethylphenyl)piperazin-1-yl)-2-oxoethyl)-1,4,5,6-tetrahydrocyclopenta[c]pyrazole-3-carbonyl)piperazin-1-yl)-2-hydroxypropan-1-one] | 22.4 |
| Cc1cccc(N2CCN(C(=O)Cn3nc(C(=O)N4CCN(C(=O)CN)CC4)c4c3CCC4)CC2)c1C [Example 398, 2-amino-1-(4-(1-(2-(4-(2,3-dimethylphenyl)piperazin-1-yl)-2-oxoethyl)-1,4,5,6-tetrahydrocyclopenta[c]pyrazole-3-carbonyl)piperazin-1-yl)ethanone] | 258 |
| COCC(=O)N1CCN(C(=O)c2nn(CC(=O)N3CCN(c4cccc(C)c4C)CC3)c3c2CCC3)CC1 [Example 399, 1-(4-(2,3-dimethylphenyl)piperazin-1-yl)-2-(3-(4-(2-methoxyacetyl)piperazine-1-carbonyl)-5,6-dihydrocyclopenta[c]pyrazol-1(4H)-yl)ethanone] | 22.4 |
| Cc1cccc(N2CCN(C(=O)Cn3nc(C(=O)N4CCN(C(=O)CO)[C@H](C)C4)c4c3CCC4)CC2)c1C [Example 400, (R)-1-(4-(2,3-dimethylphenyl)piperazin-1-yl)-2-(3-(4-(2-hydroxyacetyl)-3-methylpiperazine-1-carbonyl)-5,6-dihydrocyclopenta[c]pyrazol-1(4H)-yl)ethanone] | 25.6 |
| Cc1cccc(N2CCN(C(=O)Cn3nc(C(=O)N4CCN(C(=O)CO)C[C@@H]4C)c4c3CCC4)CC2)c1C [Example 401, (S)-1-(4-(2,3-dimethylphenyl)piperazin-1-yl)-2-(3-(4-(2-hydroxyacetyl)-2-methylpiperazine-1-carbonyl)-5,6-dihydrocyclopenta[c]pyrazol-1(4H)-yl)ethanone] | 12.9 |
| Cc1cccc(N2CCN(C(=O)Cn3nc(C(=O)N4CCN(C(=O)CO)C[C@H]4C)c4c3CCC4)CC2)c1C [Example 402, (R)-1-(4-(2,3-dimethylphenyl)piperazin-1-yl)-2-(3-(4-(2-hydroxyacetyl)-2-methylpiperazine-1-carbonyl)-5,6-dihydrocyclopenta[c]pyrazol-1(4H)-yl)ethanone] | 3.58 |
| Cc1cccc(N2CCN(C(=O)Cn3nc(C(=O)N4CCN(C(=O)[C@@H](C)O)CC4)c4c3CCC4)CC2)c1C [Example 403, (R)-1-(4-(1-(2-(4-(2,3-dimethylphenyl)piperazin-1-yl)-2-oxoethyl)-1,4,5,6-tetrahydrocyclopenta[c]pyrazole-3-carbonyl)piperazin-1-yl)-2-hydroxypropan-1-one] | 18.3 |
| Cc1c(Cl)cccc1N1CCN(C(=O)Cn2nc(C(=O)N3CC[C@H](O)[C@@H](F)C3)c3c2CCCC3)CC1 [Example 404, 1-(4-(3-chloro-2-methylphenyl)piperazin-1-yl)-2-(3-((3S,4S)-3-fluoro-4-hydroxypiperidine-1-carbonyl)-4,5,6,7-tetrahydro-1H-indazol-1-yl)ethanone] | 1.06 |
